System: Vγ9Vδ2 T cells
Assay: Activation of Vγ9Vδ2 T cells (TNF-α, flow cytometry) by HepG2 liver carcinoma cells co-cultured with expanded PBMC
Format: cell-based, human
Procedure: HepG2 cells were transduced with LV-vector, LV-BTN3A3 (R381H), or LV-shFDPS-BTN3A3 (R381H). Three days after transduction, cells were treated with or without 1 μM zoledronic acid. After 24 hours, the transduced HepG2 cells were co-cultured with 5×10^5 PBMC cells and IL-2 in a round bottom 96 well plate for 4 hours. The PBMC cells were pre-stimulated with zoledronic acid and IL-2 for 11 days to expand Vγ9Vδ2 T cells. After staining for Vγ9Vδ2 and TNF-α using fluorophore-conjugated anti TCR-Vδ2 and anti-TNF-α antibody, cells were analyzed via flow cytometry. Live cells were gated, and Vδ2+ and TNF-α+cells were selected on a dot blot. The activated cytotoxic Vγ9Vδ2 T cells appeared in the upper right quadrant of flow cytograms. Without zoledronic acid, the percent of TNF-α expressing Vγ9Vδ2 T cells was 0.6% with LV-vector, 9.5% with BTN3A3 (R381H), and 13.2% with the combination of LV-shFDPS-BTN3A3 (R381H). With zoledronic acid, the percent of TNF-α expressing Vγ9Vδ2 T cells was 7.2% with LV-vector, 17.8% with BTN3A3 (R381H), and 30.1% with the combination of LV-shFDPS-BTN3A3 (R381H).
HepG2 cells were transduced with LV-shFDPS or LV-shFDPS-IL-2. Three days after transduction, cells were treated with or without 1 μM zoledronic acid. After 24 hours, the transduced HepG2 cells were co-cultured with 5×10^5 PBMC cells and with or without IL-2 in a round bottom 96 well plate for 4 hours. The PBMC cells were pre-stimulated with zoledronic acid and IL-2 for 11 days to expand Vγ9Vδ2 T cells. After staining for Vγ9Vδ2 and TNF-α using fluorophore-conjugated anti TCR-Vδ2 and anti-TNF-α antibody, cells were analyzed via flow cytometry. Live cells were gated, and Vδ2+ and TNF-α+ cells were selected on a dot blot. The activated cytotoxic Vγ9Vδ2 T cells appeared in the upper right quadrant of flow cytograms. With only zoledronic acid, the percent of TNF-α expressing Vγ9Vδ2 T cells was 7.5% with LV-shFDPS and 20.1% with LV-shFDPS-IL-2. With zoledronic acid and IL-2, the percent of TNF-α expressing Vγ9Vδ2 T cells was 27.8% with LV-shFDPS and 24.7% with LV-shFDPS-IL-2.
HepG2 liver carcinoma cells were transduced with Lv-shFDPS, Lv-FDPS-IL-15 (expressing both shRNAFDPS and the human cytokine interleukin 15) or Lv-control and cultured for 72 hours. Zoledronic acid (1 μM) was added to (1) cells transduced with Lv-shFDPS, (2) cells transduced with Lv-FDPS-IL-15, and (3) HepG2 cells transduced with Lv-control. Treated cells were cultured for 24 hours. Lv-shFDPS transduced cells, Lv-FDPS-IL-15 transduced cells, and Lv-control transduced cells were co-cultured with PBMC enriched for Vγ9Vδ2 cells plus a protein transport inhibitor (BD GolgiStop) for 4 hours. After 4 hours of stimulation, cells were collected and labeled with Vδ2 phycoerythrin (PE) and TNFαallophycocyanin (APC), and the labeled cells were analyzed by flow cytometry.
HepG2 cells were transduced with LV-control or LV-FDPS shRNA #4 (SEQ ID NO: 4) or LV-GGPS1 shRNA #1 (SEQ ID NO: 70) for 3 days. Two days after transduction, cells were treated with or without 1 μM zoledronic acid. After 24 hours, the transduced HepG2 cells were co-cultured for 4 hours with 5×10^5 PBMC cells in a round bottom 96 well plate. The PBMC cells had been pre-stimulated with zoledronic acid plus IL-2 for at least 11 days to expand Vγ9Vδ2 T cells. After staining for Vγ9Vδ2 and TNF-α using fluorophore-conjugated anti TCR-Vδ2 and anti-TNF-α antibody, cells were analyzed via flow cytometry. Live cells were gated; Vδ2+ and TNF-α+ cells were identified on a dot blot. The activated cytotoxic Vγ9Vδ2 T cells appeared in the upper right quadrant of the flow cytograms. Without zoledronic acid, LV-control stimulated 0.36% of TNF-α expressing Vγ9Vδ2 T cells whereas LV-FDPS shRNA #4 (SEQ ID NO: 4) stimulated 0.9% and LV-GGPS1 #1 (SEQ ID NO: 70) shRNA stimulated 0.58%. […]

[1] = Example 26, FIG. 30, LV-FDPS shRNA #4 transduced HepG2 cells, drug 1 μM, 24 hours
[2] = Example 26, FIG. 30, LV-control transduced HepG2 cells, 1 μM, 24 hours, untreated 1.82%

## COC(=O)[C@H](CCSC)NC(=O)c1ccc(NC[C@@H](N)CS)cc1-c1ccccc1 [FT1277]
[1]
  percent of TNF-α expressing Vγ9Vδ2 T cells: 2.69%
[2]
  percent of TNF-α expressing Vγ9Vδ2 T cells: 1.72%

## C=C(CC[C@]12O[C@H](C(=O)O)[C@@](O)(C(=O)O)[C@](C(=O)O)(O1)[C@H](OC(=O)/C=C/[C@@H](C)C[C@@H](C)CC)[C@H]2O)[C@@H](OC(C)=O)[C@H](C)Cc1ccccc1 [zaragozic acid]
Example 26, FIG. 30, LV-FDPS shRNA #4 transduced HepG2 cells, drug 5 μM, 24 hours
  percent of TNF-α expressing Vγ9Vδ2 T cells: 2.82%
Example 26, FIG. 30, LV-control transduced HepG2 cells, 5 μM, 24 hours, untreated 1.82%
  percent of TNF-α expressing Vγ9Vδ2 T cells: 1.63%

## O=P(O)(O)C(O)(Cn1ccnc1)P(=O)(O)O [zoledronic acid]
Example 4, LV-vector (control) transduced HepG2 cells, 1 μM zoledronic acid
  percent of TNF-α expressing Vγ9Vδ2 T cells: 7.2%
Example 20, LV-control transduced HepG2 cells, 1 μM zoledronic acid
  percent of TNF-α expressing Vγ9Vδ2 T cells: 6.88%
[1]
  percent of TNF-α expressing Vγ9Vδ2 T cells: 50.8%
[2]
  percent of TNF-α expressing Vγ9Vδ2 T cells: 3.02%

Reference: patent US12559769B2, “Methods and compositions for the activation of tumor cytotoxicity via human gamma-delta t-cells” (priority 2017, dated 2026)
